Reference: US12686679B2, “Crystals of alkynyl-containing compound, salt and solvate thereof, preparation method, and applications” (GUANGZHOU HEALTHQUEST PHARMA CO., LTD., priority 2020, dated 2026)

Tests used:
Assay type in all cases: physicochemical
[1] = Suspension stirring experiment of crystal form I (stability in different solvents); conditions: for 50° C. suspension (solid form) / Room temperature suspension (solid form): stirred 3 days
Description: (§1) Using X-ray powder diffractometer (Brooke D8 advance or D2 Phase) was used to characterize the solid. • Scanning angle: […]-40 (2θ). • Step size: 0.02° (2θ). • Scan speed: 0.3 sec/step (D8), 0.2 sec/step (D2). • Light tube voltage: 40 KV (D8), 30 KV (D2). • Light tube current: 40 mA (D8), 10 mA (D2). • Rotation: On. • Sample tray: zero background sample tray. TGA
Weigh the sample crystal form I and place it in a sample bottle, and then add a solvent to prepare a suspension. The resulting suspension is stirred at room temperature and 50° C. for 3 days, then filtered and collected the solid, and the solid is characterized.

[2] = Hygroscopicity test of crystal form I, dynamic moisture adsorption (DVS)
Description: (§2) DVS analysis of solids using IGASORP dynamic water adsorption instrument. • temperature: 25° C. • airflow: 250 mL/min. • Scan loop: 2. • Minimum test time: 30 min. • Longest test time: 2 h. • Waiting for balance: 98%. PLM
The hygroscopicity of the crystal form I prepared in Examples 1-13 was studied, and 10 mg of the crystal form I was taken for a dynamic moisture adsorption (DVS) test.

[3] = Stability test of crystal form I (different temperature, humidity and light)
Description: as §1
The stability of the crystal form I prepared in Examples 1-13 was studied. Before the test, the single impurities of the crystal form I were less than 0.05%, and the total impurities were less than 0.05%.
Place the crystal form I under 60° C., high humidity, and light conditions, and sample at 0 days/5 days/10 days to investigate its content and related substances. The lighting conditions are: total illuminance: ≥1.2×106 Lux·hr, near ultraviolet energy ≥200 w·hr/m2.

[4] = Suspension stirring experiment of crystal form II (stability in different solvents); conditions: for Room temperature suspension (solid form) / 50° C. suspension (solid form): stirred 3-4 days
Description: as §1
The resulting suspension is stirred at room temperature and 50° C. for 3-4 days, then filtered and collected the solid. After vacuum drying at room temperature, the solid was characterized.

[5] = Hygroscopicity study of crystal form II, dynamic moisture adsorption (DVS); conditions: for DVS (90% RH): moisture absorption at 90% relative humidity (RH), 25° C.
Description: as §2
The crystalline form II prepared in Example 21 was used to conduct a moisture absorption study, and about 10 mg of crystalline form II was taken for a dynamic moisture adsorption (DVS) test. The conclusions are described in Table 24 below

[6] = Stability test of crystal form II (different temperature and humidity)
[7] = 0 day (before the test), listed as Form I
[8] = 0 day (before the test), listed as crystal form I
[9] = 60° C., high humidity and light conditions on 5 and 10 days
[10] = 0 day (before the test), listed as crystal form II
[11] = 60° C. and high humidity in 5 and 10 days

Cc1ccc(C(=O)Nc2ccc(CN3CCN(C)CC3)c(C(F)(F)F)c2)cc1C#Cc1cnc2[nH]ncc2c1 [Crystal form I, 3-((1H-pyrazolo[3,4-b]pyridin-5-yl)ethynyl)-4-methyl-N-(4-((4-methylpiperazine-1-yl)methyl)-3-(trifluoromethyl)phenyl) benzamide]
50° C. suspension (solid form) ([1]; Acetone): Form I
Room temperature suspension (solid form) ([1]; Acetone): Form I
50° C. suspension (solid form) ([1]; Acetonitrile): Form I
Room temperature suspension (solid form) ([1]; Acetonitrile): Form I
50° C. suspension (solid form) ([1]; Acetonitrile:water 1:1 (v:v)): Form I
Room temperature suspension (solid form) ([1]; Acetonitrile:water 1:1 (v:v)): Form I
50° C. suspension (solid form) ([1]; Butanone): Form I
Room temperature suspension (solid form) ([1]; Butanone): Form I
50° C. suspension (solid form) ([1]; Ethanol): Form I
Room temperature suspension (solid form) ([1]; Ethanol): Form I
50° C. suspension (solid form) ([1]; Ethyl acetate): Form I
Room temperature suspension (solid form) ([1]; Ethyl acetate): Form I
50° C. suspension (solid form) ([1]; Isopropanol): Form I
Room temperature suspension (solid form) ([1]; Isopropanol): Form I
50° C. suspension (solid form) ([1]; Isopropyl acetate): Form I
Room temperature suspension (solid form) ([1]; Isopropyl acetate): Form I
50° C. suspension (solid form) ([1]; Methanol): Form I
Room temperature suspension (solid form) ([1]; Methanol): Form I
50° C. suspension (solid form) ([1]; Methyl tert-butyl ether): Form I
Room temperature suspension (solid form) ([1]; Methyl tert-butyl ether): Form I
stability in a variety of solvents (conclusion) ([1]; suspension stirring, room temperature and 50° C.): good stability
DVS (90% RH) ([2]; 90% RH, 25° C.): 0.12%
DVS XRPD ([2]; XRPD after DVS): Unchanged
hygroscopicity (conclusion) ([2]; during storage): not easy to absorb water
XPRD ([3]; 0 day): Form I
content ([3]; 0 day): 101.2%
Single impurity [3, 7]: <0.05%
Total impurities [3, 7]: <0.05%
Single impurity [3, 8]: less than 0.05%
Total impurities [3, 8]: less than 0.05%
content [3, 9]: ~100%
single impurity content [3, 9]: less than 0.05%
total impurity content [3, 9]: less than 0.05%
stability (conclusion) ([3]; 60° C., high humidity and light conditions, 5 and 10 days): good stability
Single impurity ([3]; 5 days-60° C.): <0.05%
Total impurities ([3]; 5 days-60° C.): <0.05%
XPRD ([3]; 5 days-60° C.): Form I
content ([3]; 5 days-60° C.): 100.8%
Single impurity ([3]; 5 days-high humidity): <0.05%
Total impurities ([3]; 5 days-high humidity): <0.05%
XPRD ([3]; 5 days-high humidity): Form I
content ([3]; 5 days-high humidity): 101.4%
Single impurity ([3]; 5 days-light): <0.05%
Total impurities ([3]; 5 days-light): <0.05%
XPRD ([3]; 5 days-light): Form I
content ([3]; 5 days-light): 101.5%
Single impurity ([3]; 10 days-60° C.): <0.05%
Total impurities ([3]; 10 days-60° C.): <0.05%
XPRD ([3]; 10 days-60° C.): Form I
content ([3]; 10 days-60° C.): 100.8%
Single impurity ([3]; 10 days-high humidity): <0.05%
Total impurities ([3]; 10 days-high humidity): <0.05%
XPRD ([3]; 10 days-high humidity): Form I
content ([3]; 10 days-high humidity): 100.9%
Single impurity ([3]; 10 days-light): <0.05%
Total impurities ([3]; 10 days-light): <0.05%
XPRD ([3]; 10 days-light): Form I
content ([3]; 10 days-light): 100.4%

Cc1ccc(C(=O)Nc2ccc(CN3CCN(C)CC3)c(C(F)(F)F)c2)cc1C#Cc1cnc2[nH]ncc2c1.O=C(O)/C=C/C(=O)O [Crystal form II, 3-((1H-pyrazolo[3,4-b]pyridin-5-yl)ethynyl)-4-methyl-N-(4-((4-methylpiperazine-1-yl)methyl)-3-(trifluoromethyl)phenyl) benzamide fumarate]
Room temperature suspension (solid form) ([4]; 1,4-dioxane): Crystal Form II
50° C. suspension (solid form) ([4]; Acetone:water 1:2 (v:v)): Crystal Form XIV
50° C. suspension (solid form) ([4]; Acetonitrile): Crystal Form II
Room temperature suspension (solid form) ([4]; Acetonitrile): Crystal Form II
50° C. suspension (solid form) ([4]; Ethyl acetate): Crystal Form II
Room temperature suspension (solid form) ([4]; Ethyl acetate): Crystal Form II
50° C. suspension (solid form) ([4]; Isopropanol): Crystal Form II
Room temperature suspension (solid form) ([4]; Isopropanol): Crystal Form II
Room temperature suspension (solid form) ([4]; Isopropyl acetate): Crystal Form II
Room temperature suspension (solid form) ([4]; Methanol:water 3:1 (v:v)): Crystal Form II
Room temperature suspension (solid form) ([4]; N-heptane): Crystal Form II
50° C. suspension (solid form) ([4]; Tetrahydrofuran): Crystal Form II
Room temperature suspension (solid form) ([4]; Tetrahydrofuran): Crystal Form II
50° C. suspension (solid form) ([4]; ethanol): Crystal Form II
Room temperature suspension (solid form) ([4]; ethanol): Crystal Form II
50° C. suspension (solid form) ([4]; methanol): Crystal Form II
Room temperature suspension (solid form) ([4]; methanol): Crystal Form II
stability at room temperature and 50° C. (conclusion) ([4]; suspension stirring in solvents): good stability
hygroscopicity (conclusion) ([5]; during storage): not easy to absorb water
XRPD before and after DVS ([5]; listed as Crystal Form II): Unchanged
XRPD before and after DVS ([5]; listed as crystal form II): has not changed
DVS (90% RH) ([5]; listed as Crystal Form II): 1.66%
DVS (90% RH) ([5]; listed as crystal form II): 1.66%
XPRD ([6]; 0 day): Crystal Form II
content ([6]; 0 day): 98.7%
Single impurity ([6]; 0 day (before the test)): <0.05%
Total impurities ([6]; 0 day (before the test)): <0.05%
Single impurity [6, 10]: less than 0.05%
Total impurities [6, 10]: less than 0.05%
The content (single impurity) [6, 11]: less than 0.05
content [6, 11]: ≥ 98.5%
total impurity content [6, 11]: less than 0.05
stability (conclusion) ([6]; 60° C. and high humidity, 5 and 10 days): good stability
Single impurity ([6]; 5 days-60° C.): <0.05%
Total impurities ([6]; 5 days-60° C.): <0.05%
XPRD ([6]; 5 days-60° C.): Crystal Form II
content ([6]; 5 days-60° C.): 99.5%
Single impurity ([6]; 5 days-high (high humidity)): <0.05%
Total impurities ([6]; 5 days-high (high humidity)): <0.05%
XPRD ([6]; 5 days-high (high humidity)): Crystal Form II
content ([6]; 5 days-high (high humidity)): 99.4%
Single impurity ([6]; 10 days-60° C.): <0.05%
Total impurities ([6]; 10 days-60° C.): <0.05%
XPRD ([6]; 10 days-60° C.): Crystal Form II
content ([6]; 10 days-60° C.): 99.2%
Single impurity ([6]; 10 days-high (high humidity)): <0.05%
Total impurities ([6]; 10 days-high (high humidity)): <0.05%
XPRD ([6]; 10 days-high (high humidity)): Crystal Form II
content ([6]; 10 days-high (high humidity)): 99.0%
